Data from patent publication US20210338679A1, “NOVEL USES” (INTRA-CELLULAR THERAPIES, INC., priority 2018, published 2021).

Assays:
[1] = system: leukocytes, neutrophils, and macrophages (M1/M2 macrophages); assay: Mouse zymosan pleurisy model, flow cytometry of infiltrating cells; type: in vivo, mice; conditions: for inflammatory resolution (shift from M1 to M2): zymosan sterile inflammation, FIGS. 1-9
Method: (§1) Zymosan is injected into the pleural cavities of mice in order to induce sterile inflammation. Infiltration of leukocytes, neutrophils, and macrophages are monitored at days 3 and 7 following injection. Detection of various cell types are identified according to the gating strategy outlined in Table 1 below.
In this model, injection of zymosan causes the recruitment of various waves of leukocytes, which are observed and recorded. Exudate volume increases to a maximum over a period of 24 hours, and neutrophils increase within 4 hours and reach a maximum by 48 hours. Lymphocytes of the adaptive immune system enter at a later stage, after three days, which is signaled by macrophages presenting antigens. A resolution phase is well documented in this model and is accompanied by decreased total macrophage number and transition into M2 phenotype.
In the studies, Compounds 1 and 2 were administered to the test subjects, and the effect the compounds had on infiltration of leukocytes, neutrophils, and macrophages was observed.
Similar tests were conducted with Compound 2, the results of which are illustrated in FIGS. 8 and 9. […] An additional test was carried out according to the same method. Mice were injected intraperitoneally with 1 mg Zymosan followed by 10 mg/kg Compound 1. Macrophage levels were recorded at injection, then at 4, 8, 16, 24, 48 and 72 hours post-injection.

BV2 cells = assay: Microglia chemotaxis assay; type: cell-based; conditions: 100 μM ADP, 4 hours; FIG. 10
Method: BV2 cells were added to upper chamber of a 5 μm pore Transwell 96-well plate over a reservoir containing 100 μM ADP and incubated at 37° C. with 5% CO2 for 4 hours. After the incubation cells were harvested with pre-warmed cell detachment solution for 30 minutes in the same incubation conditions. 75 μl of this cell detachment solution was combined with 75 μl of culture medium in a new 96 well plate compatible with a fluorescence reader. Cell number in bottom chamber was determined by adding CyQuant® GR dye and reading in the Envision fluorescence reader at 480 nm EX/520 nm EM.

[2] = system: leukocytes, neutrophils, and macrophages (M1/M2 macrophages); assay: Mouse zymosan pleurisy model, flow cytometry of infiltrating cells; type: in vivo, mice; conditions: 1 mg Zymosan i.p. followed by 10 mg/kg; day 7; FIG. 11A
[3] = system: cytokine markers (IFNγ, IL-1β, MCP1-β, TNF-α, IL10, MCP-1/CCL2); assay: Inflammatory cytokine biomarkers in mouse zymosan pleurisy model; type: in vivo, mice
Method: as §1
(§2) Zymosan was injected into the pleural cavities of mice in order to induce sterile inflammation by the methods discussed in Example 1. Compound 1 was administered to test subjects to observe the effects on a variety of inflammatory biomarkers. […] IFNγ, IL-1β, MCP1-β and TNF-α decreased following administration of Compound 1 in all serum and plasma samples.

[4] = system: metabolites of AA and DHA; assay: Detection of arachidonic acid and docosahexaenoic acid metabolites in mouse zymosan pleurisy model; type: in vivo, mice
Method: as §2, with “biomarkers. Results were recorded after 4 hours.” for “biomarkers.”
Lipids are known to be involved in regulation of a multitude of cellular responses including cell growth and death, and inflammation/infection, via receptor-mediated pathways. Various lipids are involved in both the initiation and resolution of inflammation. Pro-resolving lipid mediators are produced naturally in the body from unsaturated fatty acids, such as arachidonic acid (AA) and docosahexaenoic acid (DHA). Further studies were carried out to identify metabolites of AA and DHA, which are summarized below in Tables 2 and 3.

[5] = after 4 hours, serum and plasma samples
[6] = arachidonic acid metabolite, compared with controls
[7] = docosahexaenoic acid metabolite

For `C[C@@H]1C[C@H]2[C@@H]3CCC4=CC(=O)C=C[C@]4(C)[C@@]3(F)[C@@H](O)C[C@]2(C)[C@@]1(O)C(=O)CO` [Dexamethasone, reference compound], the “number of CD38+ macrophage populations” value ([1]; 2 mg/kg, day 3 or 7, FIG. 8) was “no significant effect” and the “number of Erg2+ macrophage populations” value ([1]; 2 mg/kg, day 3 or 7, FIG. 9) was “no significant effect”.

With `CN1C(=O)c2c(nn(Cc3ccc(-c4ccccn4)cc3)c2Nc2ccccc2)N2C1=N[C@@H]1CCC[C@@H]12` [Compound 2] the “CD38+ macrophages” value ([1]; 3 mg/kg, day 7, FIG. 8) was “significant drop”, the “Erg2+ macrophages” value ([1]; 3 mg/kg, day 7, FIG. 9) was “sharp and significant increase” and the “inflammatory resolution (shift from M1 to M2)” value [1] was “enhanced inflammatory resolution”.

For `CN1C(=O)c2c(nn(Cc3ccc(-c4cccc(F)n4)cc3)c2Nc2ccccc2)N2C1=N[C@@H]1CCC[C@@H]12` [Compound 1], the “motility of the BV2 cells across the membrane” value (BV2 cells) was “marked dampening effect”, the “CD80+ macrophages (M1), difference to control” value [2] was “significant different” and the IL10 ([3]; after 4 hours, serum) was “decrease”. The IFNγ [3, 5] was “decreased”, the IL-1β [3, 5] was “decreased” and the MCP1-β [3, 5] was “decreased”. The TNF-α [3, 5] was “decreased”, the “inflammatory biomarkers (MCP-1/CCL2)” value ([3]; plasma, at 3 and 7 days, in comparison with control groups, FIG. 7) was “less inflammatory biomarkers” and the “Arg1+ M2 macrophages” value ([1]; 1 mg Zymosan i.p. followed by 10 mg/kg, 4 hours, FIG. 12A) was “increased”. The M1 macrophage levels ([1]; 1 mg Zymosan i.p. followed by 10 mg/kg, all observed times, FIGS. 11A, 11B) was “lower M1 macrophage levels”, the “CD206+ M2 macrophages” value ([1]; 1 mg Zymosan i.p. followed by 10 mg/kg, relative to control at 2 and 3 days) was “significantly increased” and the “MFI for CD38+ on macrophages” value ([1]; day 3, among all animal groups, FIG. 6A) was “lowest value”. The “total numbers of CD38+ macrophages” value ([1]; day 3, FIG. 5A) was “decreased”, the number of neutrophils ([1]; day 7, compared with disease only and vehicle animals, FIG. 3A) was “less dramatic decrease” and the “inflammatory resolution (shift from M1 to M2)” value [1] was “enhanced inflammatory resolution”. For the same compound, the “5-HETE (intermediate mediator linked to resolution)” value [4, 6] was “No change”, the “12-HETE (intermediate mediator linked to resolution)” value [4, 6] was “Increase” and the “15-HETE (intermediate mediator linked to resolution)” value [4, 6] was “Increase”. For the same compound, the “LTB4 (pro-inflammatory mediator)” value [4, 6] was “No change”, the “PGE2 (pro-inflammatory mediator)” value [4, 6] was “Decrease” and the “TXB2 (pro-inflammatory mediator)” value [4, 6] was “Decrease”. The “14-HDOHE (resolution mediator)” value [4, 7] was “Increase”, the “17-HDOHE (intermediate mediator linked to resolution)” value [4, 7] was “Increase” and the “RVD5 (intermediate mediator linked to resolution)” value [4, 7] was “Increase”.
